The target in assay [1] is FLAG-tagged Vanin-1 (AA 22-493, T26I) (Homo sapiens (Human), UniProt O95497, T26I). The experiment in a line: Vanin-1 enzymatic assay. It counts as biochemical. The settings on record: 0.1 nM Vanin-1, 3 μM D-pantethine, pantothenic acid formation by RapidFire MS; geometric mean if multiple measurements; read-out: VNN 1 IC50. How it is done: The test compounds are dissolved in 100% DMSO at a concentration of 10 mM and in a first step diluted in DMSO to a concentration of 5 mM, followed by serial dilution steps in 100% DMSO. Dilution factor and number of dilution steps may vary according to needs. Typically 8 different concentrations by 1:5 dilutions are prepared, a further intermediate dilutions of the substances is carried out with assay buffer resulting in 1% final DMSO concentration in the assay.
Sequence of FLAG-tagged Vanin-1 (AA 22-493, T26I) (O95497 22-493 T26I): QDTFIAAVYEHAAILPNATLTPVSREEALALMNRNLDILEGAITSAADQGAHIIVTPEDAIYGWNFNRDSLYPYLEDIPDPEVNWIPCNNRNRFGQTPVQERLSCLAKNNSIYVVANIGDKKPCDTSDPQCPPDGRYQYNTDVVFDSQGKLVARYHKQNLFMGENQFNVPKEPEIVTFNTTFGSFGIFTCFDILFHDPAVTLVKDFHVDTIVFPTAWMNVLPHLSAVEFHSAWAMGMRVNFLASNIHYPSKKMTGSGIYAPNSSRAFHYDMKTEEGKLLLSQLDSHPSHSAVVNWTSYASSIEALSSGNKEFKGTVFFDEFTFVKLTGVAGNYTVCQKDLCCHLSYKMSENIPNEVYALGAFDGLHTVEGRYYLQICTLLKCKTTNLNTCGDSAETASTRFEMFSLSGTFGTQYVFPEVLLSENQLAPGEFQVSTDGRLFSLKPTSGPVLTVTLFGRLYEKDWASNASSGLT
0.1 nM of FLAG-tagged Vanin-1 (AA 22-493, T26I, produced internally) and test compounds are incubated at room temperature for 20 minutes in assay buffer (1 mM DTT, 0.0025% Brij-35, 50 mM HEPES, pH7.5). D-Pantethine (Sigma, Cat #P2125-5G) in assay buffer is added (final concentration 3 μM) and incubated for additional 30 minutes at room temperature. Total assay volume typically is 40 μl but might be adjusted according to needs. Reaction is stopped by adding equal volume of stop solution as the reaction mixture to reach 100 nM HD-pantothenic acid (as an internal standard) and 1% TFA. Assay plates are centrifuged for 2 minutes and the formation of pantothenic acid is detected by RapidFire Mass Spectrometry (mobile phase A: 0.1% formic acid and 0.01% trifluoroacetic acid in water; mobile phase B: 47.5% acetonitrile, 47.5% methanol, 0.1% formic acid and 0.01% trifluoroacetic acid in water) using a C18, 12 μL cartridge (Agilent Cat #G9205A).
The values given in Table I result from measurements of one or more samples. In case of multiple measurements the geometric mean values are given.

In the next assay the test system is Pantetheinase (vanin). The assay can be described thus: Human Whole Blood assay. It counts as cell-based. The settings on record: pantethine substrate, pantothenic acid formation by RapidFire MS, read-out: HWB IC50. As for the experimental part: Pantetheinase (vanin) converts panteheine into pantothenic acid and cysteamine. Accordingly, in the described protocol vanin activity is quantified by formation of pantothenic acid after pantetheine supplementation via pantethine. The assay is applicable to identify vanin inhibitors. Compound stocks are dissolved in DMSO at 10 mM. Further dilutions are performed in RPMI 1640 medium (Gibco, #A-10491-01) and final concentrations in the assay are 0.032 nM-500 nM.
Human blood is drawn into a blood bag (1% heparin, 50 I.E./mL). Blood is aliquoted into cavities of 96-deep-well plates at 290 μL and mixed with 10 μL compound solution or vehicle (30 sec at 1400 rpm on a shaker). Equilibration follows at room temperature, 250 rpm and for 30 min. The assay is starts by adding 10 μL of substrate solution (20 μM pantethine in 1 mM DTT, 0.0025% Brij-35, 50 mM HEPES, pH7.5) to each well, except for some blank wells which receive […] substrate buffer (1 mM DTT, 0.0025% Brij-35, 50 mM HEPES, pH7.5) only. Samples are thoroughly shaken (30 sec, 1400 rpm) and reaction is allowed to take place at room temperature, 250 rpm and for 5 min. The reaction is stopped by addition of a vanin tool inhibitor in excess (BI-1 total conc. 10 μM). Centrifugation of the plate follows at 4° C., 665 G for 10 min. Then the blood plasma samples (100 μL) are transferred into another 96-deep-well plate and proteins are precipitated (5 min on ice) by adding 100 μL of ice cold precipitation solution (1 μM labelled pantothenic acid (di-β-alanine-13C6,15N2 calcium salt, Sigma, #705837) in acetonitrile). Afterwards the plate is centrifuged (4° C., 3220 G, 10 min) and supernatants (50 μL) are collected into another 96-deep-well plate and mixed (10 sec, 1400 rpm) with 150 μL ice cold formic acid (0.1%, Carl Roth GmbH+Co.KG, #CP03.1). The formation of pantothenic acid is detected by RapidFire Mass Spectrometry. A TripleQuad 6500+ (ABSciex, Germany) is equipped with an LC-1290 system, a RapidFire autosampler (Agilent, Germany) and a C18 cartridge Type C 12 μL (Agilent Cat #G9526-80000). Mobile phase A is consisting of 0.09% formic acid and 0.01% trifluoroacetic acid in water and mobile phase B of 0.09% formic acid and 0.01% trifluoroacetic acid in acetonitrile/methanol/water=47.5/47.5/5.

Regarding `CN1CCN(C(=O)N(C)[C@H]2CCN(C(=O)c3ccc(NC(C)(C)C)nc3)C2)CC1` [Example 4.2], the IC50 in assay [1] was 1.2 nM.
`CN(C(=O)C1CC1)[C@H]1CCN(C(=O)c2ccc(NC3(C)CCOCC3)nc2)C1` [Example 2.5]: the IC50 in assay [1] stood at 7.3 nM.
On to `Cc1cc(C(=O)N(C)[C@H]2CCN(C(=O)c3ccc(NC(C)(C)C)nc3)C2)[nH]n1` [Example 1.12], for which the IC50 was 9.7 nM with Pantetheinase (vanin) and 0.4 nM in assay [1].
Take `CN(C(=O)C1CCC1)[C@H]1CCN(C(=O)c2ccc(NC(C)(C)C)nc2)C1` [Example 1.1, N-[(3S)-1-[6-(tert-Butylamino)pyridine-3-carbonyl]pyrrolidin-3-yl]-N-methylcyclobutanecarboxamide]: the concentration for half-maximal inhibition (IC50) was determined as 4.3 nM in the assay with Pantetheinase (vanin) and 0.2 nM in assay [1].
`CN(C(=O)C1CC1)[C@H]1CCN(C(=O)c2ccc(NC3(C)CCCC3)nc2)C1` [Example 2.3]: in assay [1], the IC50 came out at 0.7 nM.
As to `CN(C(=O)c1cc(C(F)(F)F)nn1C)[C@H]1CCN(C(=O)c2ccc(NC(C)(C)C)nc2)C1` [Example 1.7], the IC50 worked out at 5 nM in the assay on Pantetheinase (vanin) and 0.3 nM in assay [1].
Take `CN(C(=O)C1CCOC1)[C@H]1CCN(C(=O)c2ccc(NC(C)(C)C)nc2)C1` (some centres unmarked) [Example 1.10]: the IC50 in assay [1] is 0.4 nM.
Take `CN(C(=O)[C@H]1CCCO1)[C@H]1CCN(C(=O)c2ccc(NC(C)(C)C)nc2)C1` [Example 1.15]: the IC50 in assay [1] turned out to be 1 nM.
For the molecule `CCC(C)(C)Nc1ccc(C(=O)N2CC[C@H](N(C)C(C)=O)C2)cn1` [Example 3.2], the IC50 with Pantetheinase (vanin) was determined as 3.1 nM; in assay [1], 0.2 nM.
In the case of `CN(C(=O)c1ccc(F)cc1)[C@H]1CCN(C(=O)c2ccc(NC(C)(C)C)nc2)C1` [Example 1.11], the figures for the IC50 (with Pantetheinase (vanin); in assay [1]) were 7.5 nM and 0.4 nM, respectively.
Turning to `CC(C)(C)Nc1ccc(C(=O)N2CC[C@H](N3CCCCC3=O)C2)cn1` [Example 1.14], the IC50 in the assay with Pantetheinase (vanin) worked out at 12.5 nM; in assay [1], 0.8 nM.
Turning to `CC1CN([C@H]2CCN(C(=O)c3ccc(NC(C)(C)C)nc3)C2)C(=O)O1` (stereo partly drawn) [Example 6, 3-[(3S)-1-[6-(tert-Butylamino)pyridine-3-carbonyl]pyrrolidin-3-yl]-5-methyl-1,3-oxazolidin-2-one], the IC50 in assay [1] came out at 1.6 nM.
Take `CC(C)(C)Nc1ccc(C(=O)N2CC[C@H](N3CCOC3=O)C2)cn1` [Example 1.6]: the IC50 in the assay on Pantetheinase (vanin) was found to be 4 nM; in assay [1], 0.3 nM.
On the same counts, the results for `CC(=O)N(C)[C@H]1CCN(C(=O)c2ccc(NC(C)(C)Cc3ccc(F)cc3)nc2)C1` [Example 3.3] are 8.7 nM and 0.4 nM.
As for `CC(=O)N(C)[C@H]1CCN(C(=O)c2ccc(NC(C)(C)CCn3cncn3)nc2)C1` [Example 3.4], the IC50 in assay [1] was 2.1 nM.
With `CC(=O)N(C)[C@H]1CCN(C(=O)c2ccc(NC(C)(C)C)nc2)C1` [Example 5.1, N-[(3S)-1-[6-(tert-Butylamino)pyridine-3-carbonyl]pyrrolidin-3-yl]-N-methylacetamide], the IC50 in the assay with Pantetheinase (vanin) is 3.2 nM; in assay [1], 0.5 nM.
The corresponding values for `CN(C(=O)C1CC1)[C@H]1CCN(C(=O)c2ccc(NC(C)(C)C)nc2)C1` [Example 1.5] are 4.2 nM and 0.3 nM.
With `CN(C(=O)c1ccc(Cl)s1)[C@H]1CCN(C(=O)c2ccc(NC(C)(C)C)nc2)C1` [Example 1.4], the IC50 with Pantetheinase (vanin) amounted to 25.2 nM; in assay [1] it was 0.3 nM.
On the same counts, the results for `CC1(C#N)CCN(C(=O)c2ccc(NC(C)(C)C)nc2)C1` (single isomer, unassigned) [Example 7, 1-[6-(tert-Butylamino)pyridine-3-carbonyl]-3-methylpyrrolidine-3-carbonitrile] are 3.9 nM and 0.3 nM.
As to `CC(=O)N(C)[C@H]1CCN(C(=O)c2ccc(NC(C)(C)C(C)C)nc2)C1` [Example 2.2], the IC50 in the assay with Pantetheinase (vanin) was found to be 7.7 nM; in assay [1], 0.4 nM.
Take `CC(=O)N(C)[C@@H]1CCN(C(=O)c2ccc(NC(C)(C)C)nc2)C1` [Example 5.2]: the IC50 in the assay with Pantetheinase (vanin) came out at 267 nM.
`CC(C)(C)Nc1ccc(C(=O)N2CC(C)(c3ccccn3)C2)cn1` [Example 8, N-tert-Butyl-5-[3-methyl-3-(pyridin-2-yl)azetidine-1-carbonyl]pyridin-2-amine]: the IC50 amounted to 2.7 nM in the assay on Pantetheinase (vanin) and 0.3 nM in assay [1].
Regarding `CN(C(=O)C1CC1)[C@H]1CCN(C(=O)c2ccc(NC3(C)CCC3)nc2)C1` [Example 2.1, N-Methyl-N-[(3S)-1-{6-[(1-methylcyclobutyl)amino]pyridine-3-carbonyl}pyrrolidin-3-yl]cyclopropanecarboxamide], the IC50 in the assay on Pantetheinase (vanin) worked out at 4.6 nM; in assay [1], 0.3 nM.
As for `CC(=O)N(C)[C@H]1CCN(C(=O)c2ccc(NC(C)(C)CCO)nc2)C1` [Example 3.1, N-[(3S)-1-{6-[(4-Hydroxy-2-methylbutan-2-yl)amino]pyridine-3-carbonyl}pyrrolidin-3-yl]-N-methylacetamide], the IC50 in the assay on Pantetheinase (vanin) was determined as 1.6 nM; in assay [1], 0.2 nM.
The corresponding values for `CN(C(=O)[C@@H]1CCCO1)[C@H]1CCN(C(=O)c2ccc(NC(C)(C)C)nc2)C1` [Example 1.3] are 2.7 nM and 0.3 nM.
Turning to `CN(C(=O)C1(C#N)CC1)[C@H]1CCN(C(=O)c2ccc(NC(C)(C)C)nc2)C1` [Example 1.8], the results for the IC50 (in the assay with Pantetheinase (vanin); in assay [1]) were 5.8 nM and 0.3 nM, respectively.
As to `CN(C(=O)N1CCOCC1)[C@H]1CCN(C(=O)c2ccc(NC(C)(C)C)nc2)C1` [Example 4.1, N-[(3S)-1-[6-(tert-Butylamino)pyridine-3-carbonyl]pyrrolidin-3-yl]-N-methylmorpholine-4-carboxamide], the IC50 in the assay with Pantetheinase (vanin) stood at 3.2 nM; in assay [1], 0.3 nM.
Turning to `CN(C(=O)CN1CCOCC1)[C@H]1CCN(C(=O)c2ccc(NC(C)(C)C)nc2)C1` [Example 1.16], in assay [1], the IC50 was 1.3 nM.
On to `CN(C(=O)C1CC1)[C@H]1CCN(C(=O)c2ccc(NC34CC(C3)C4)nc2)C1` [Example 2.6], for which the IC50 was 9.2 nM in the assay on Pantetheinase (vanin) and 0.4 nM in assay [1].
With `CN(C(=O)C1CC(F)(F)C1)[C@H]1CCN(C(=O)c2ccc(NC(C)(C)C)nc2)C1` [Example 1.2], the IC50 in the assay with Pantetheinase (vanin) came to 3.6 nM; in assay [1], 0.2 nM.
For the molecule `CN(c1ncccn1)[C@H]1CCN(C(=O)c2ccc(NC(C)(C)C)nc2)C1` [Example 1.13], the IC50 with Pantetheinase (vanin) amounted to 12.6 nM; in assay [1], 0.4 nM.
Turning to `CC1(Nc2ccc(C(=O)N3CC[C@H](N4CCCC4=O)C3)cn2)CCCCC1` [Example 2.4], the IC50 in assay [1] amounted to 1.7 nM.
On to `CC(C)(C)Nc1ccc(C(=O)N2CC[C@H](N3CCCC3=O)C2)cn1` [Example 1.9], for which the IC50 turned out to be 3.1 nM in the assay on Pantetheinase (vanin) and 0.4 nM in assay [1].

(Values after patent US11078182B2, “Heteroaromatic compounds as Vanin inhibitors” (Boehringer Ingelheim International GmbH, priority 2018, dated 2021).)
